One test addresses human OATP1B1 (Homo sapiens (Human), UniProt Q9Y6L6). Put plainly: In Vitro Inhibition Assessment with Human OATP1B1 Transporter. As to conditions: HEK293-OATP1B1 cells, probe substrate pravastatin. In kind it is in vitro ADME. Here is the method: In Vitro Inhibition Assessment with Human OATP1B1 and OATP1B3 Transporters Assay Protocol
The purpose of this assay was to assess the inhibition potential of test article (TA) toward human OATP1B1 and OATP1B3 transporters in vitro using cell lines transfected with the individual transporters. The assays used clinically relevant probe substrate pravastatin and a known positive control inhibitor rifampicin. HEK293 mock, HEK293-OATP1B1, and HEK293-OATP1B3 transfected cells were seeded onto CellCoat Poly-D-Lysine coated 96 well black cell culture plates with clear bottoms (Greiner bio-one, Cat. #655946) at a density of 70,000 cells/well and cultured to confluency overnight. Seeding media used was Dulbecco's Modification of Eagle's Medium (DMEM—with GlutaMAX high glucose; Gibco, Cat #: 10569-010) supplemented with 10% fetal bovine serum, 0.1 mM non-essential amino acids, 100 U/mL penicillin, and 100 μg/mL streptomycin. On assay day, media were removed from the assay plates and cells were washed with Hanks' Balanced Salt Solution (HBSS Buffer) (Corning, Cat. #21-023-CV). All TAs and reference inhibitor were serially diluted in DMSO to create spiking solutions at concentrations of 250-fold of final assay concentrations (final DMSO content 0.4%). Cells were preincubated with HBSS buffer containing test compounds for 15 minutes. After the removal of HBSS buffer, dose solution containing TA or reference inhibitor and probe substrate were added to the HEK293-OATP1B1, HEK-293-OATP1B3 and its associated mock cell plate, respectively. The co-incubation period of TAs with the corresponding probe substrate for all plates was 5 minutes. An aliquot of the dose solution was removed from the HEK293 mock cell plates and analysed for dose recovery. Cells were then washed three times with ice cold HBSS buffer and then immediately extracted with methanol:water (70:30 v:v) containing internal standard labetolol (30 nM). The supernatants were evaporated to dryness on injection plates and reconstituted in 80% water containing 20% acetonitrile and 0.1% formic acid for analysis by liquid chromatography with tandem mass spectrometry (LC-MS-MS).
Fractional transport activities were calculated from the equation: Activity %=(A−B)/(C−D)×100
• A: translocated amount of substrate in the presence of TA on transfected cells • B: translocated amount of substrate in the presence of TA on Mock cells • C: translocated amount of substrate in the presence of solvent on transfected cells • D: translocated amount of substrate in the presence of solvent on Mock cells
GraphPad Prism 7.0 (GraphPad Software Inc., San Diego, CA) was used for curve fitting and determination of reaction parameters. In uptake transporter inhibition assays, the IC50 (μM) was calculated, where applicable. IC50 was defined as the concentration of TA required to inhibit maximal activity by 50%.

The target in another test is human KHK-C (Homo sapiens (Human), UniProt P50053). Briefly: KHK Biochemical Assay (IC50), ADP-Glo, KHK-C. To be noted: average of at least two separate assays. In a few lines:
(§1)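 ADP-Glo luminescence measured ADP made over a 4 h room-temperature reaction of ATP plus fructose, started after 30 min compound–enzyme pre-incubation. Buffer: 50 mM Hepes pH 7.4, 140 mM KCl, 5 mM MgCl2, 0.01% Triton-X. Enzyme was His-tagged, BL21 (DE3)-expressed, Ni-NTA-purified; compounds in 1:3 DMSO dilution series.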
For orientation: ADP-Glo first removes unused ATP, then detects ADP through luciferase.

The target in another test is human KHK-A (Homo sapiens (Human), UniProt P50053). Briefly: KHK Biochemical Assay (IC50), ADP-Glo, KHK-A. As to conditions: average of at least two separate assays. In a few lines:
as §1

The target of test [1] is KHK-C expressed in NRK-52E cells (Homo sapiens (Human), UniProt P50053). Put plainly: KHK-C Cell-based Assay (EC50), NRK CTG, fructose-mediated ATP-depletion.
Sequence of KHK-C expressed in NRK-52E cells (P50053 whole entry): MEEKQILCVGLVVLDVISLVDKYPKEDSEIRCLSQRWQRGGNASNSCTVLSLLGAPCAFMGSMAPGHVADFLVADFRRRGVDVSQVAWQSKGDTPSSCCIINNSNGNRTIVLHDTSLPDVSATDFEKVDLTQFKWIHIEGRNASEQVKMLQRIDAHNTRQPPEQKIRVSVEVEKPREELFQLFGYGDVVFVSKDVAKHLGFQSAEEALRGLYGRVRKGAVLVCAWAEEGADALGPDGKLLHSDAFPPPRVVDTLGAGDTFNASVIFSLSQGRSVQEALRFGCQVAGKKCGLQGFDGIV

Sequence of human OATP1B1 (Q9Y6L6 whole entry): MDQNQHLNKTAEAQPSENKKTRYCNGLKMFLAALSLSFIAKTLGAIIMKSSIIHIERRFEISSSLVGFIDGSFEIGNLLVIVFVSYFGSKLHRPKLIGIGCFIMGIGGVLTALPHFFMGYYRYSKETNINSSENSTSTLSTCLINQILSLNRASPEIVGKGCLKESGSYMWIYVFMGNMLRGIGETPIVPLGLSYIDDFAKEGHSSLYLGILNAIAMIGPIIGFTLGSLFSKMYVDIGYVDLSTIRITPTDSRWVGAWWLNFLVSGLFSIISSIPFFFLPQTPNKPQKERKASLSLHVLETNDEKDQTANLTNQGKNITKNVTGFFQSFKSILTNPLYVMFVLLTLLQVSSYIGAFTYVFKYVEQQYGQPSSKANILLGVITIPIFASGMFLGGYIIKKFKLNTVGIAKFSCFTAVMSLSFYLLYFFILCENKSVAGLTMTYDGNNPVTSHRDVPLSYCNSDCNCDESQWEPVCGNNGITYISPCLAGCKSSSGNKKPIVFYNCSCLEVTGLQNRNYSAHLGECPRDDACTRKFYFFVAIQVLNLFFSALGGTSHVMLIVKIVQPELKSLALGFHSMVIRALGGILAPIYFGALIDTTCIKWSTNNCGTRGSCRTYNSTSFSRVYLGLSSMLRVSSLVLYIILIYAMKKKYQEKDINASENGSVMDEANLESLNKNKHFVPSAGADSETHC
Sequence of human KHK-A (P50053 other isoform, or with tags, fused parts or gaps): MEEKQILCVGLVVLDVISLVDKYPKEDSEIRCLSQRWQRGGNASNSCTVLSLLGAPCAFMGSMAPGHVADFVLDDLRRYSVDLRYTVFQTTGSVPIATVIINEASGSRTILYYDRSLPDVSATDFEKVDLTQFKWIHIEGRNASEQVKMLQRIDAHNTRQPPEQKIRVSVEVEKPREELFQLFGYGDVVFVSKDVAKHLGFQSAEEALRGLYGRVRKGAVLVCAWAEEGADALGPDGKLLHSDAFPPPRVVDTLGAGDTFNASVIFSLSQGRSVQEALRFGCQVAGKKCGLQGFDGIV
Sequence of human KHK-C (P50053 whole entry): as the sequence (P50053 whole entry) above

For the molecule `C[C@H]1CCN1c1nc2c(c(-c3cccc(CCC(=O)O)c3)n1)CCC2` [Example 4, (S)-3-(3-(2-(2-methylazetidin-1-yl)-6,7-dihydro-5H-cyclopenta[d]pyrimidin-4-yl)phenyl)propanoic acid], the IC50 (usually the midpoint of a concentration-inhibition curve) is 928 nM at human OATP1B1, 46.1 nM against human KHK-C (ADP-Glo) and 41.4 nM on human KHK-A (ADP-Glo). In addition, it took 310 nM to reach a half-maximal effect in test [1] (EC50).

On to `C[C@H]1CCN1c1nc2c(c(-c3cccc(C(=O)O)c3)n1)CCC2` [Example 9, (S)-3-(2-(2-methylazetidin-1-yl)-6,7-dihydro-5H-cyclopenta[d]pyrimidin-4-yl)benzoic acid], for which the results for the concentration for half-maximal inhibition (IC50) against human OATP1B1, at human KHK-C (ADP-Glo) and on human KHK-A (ADP-Glo) were 448 nM, 68.6 nM and 48.9 nM, respectively. For the same molecule, the EC50 (in general, the concentration giving half of the maximal effect) in test [1] turned out to be 611 nM.

Regarding `C[C@H]1[C@H](O)CN1c1nc2c(c(-c3ccc(C4(N)COC4)cc3)n1)CCC2` [Example 159, (2S,3R)-1-(4-(4-(3-aminooxetan-3-yl)phenyl)-6,7-dihydro-5H-cyclopenta[d]pyrimidin-2-yl)-2-methylazetidin-3-ol], the concentration for half-maximal inhibition (IC50) at human OATP1B1 is 7400 nM; against human KHK-C (ADP-Glo), 10.1 nM; against human KHK-A (ADP-Glo), 25.6 nM. The molecule also came in with an EC50 in test [1] of 36.9 nM.

For `C[C@H]1[C@H](O)CN1c1nc2c(c(-c3cccc(CNS(C)(=O)=O)c3)n1)CCC2` [Example 285], the IC50 at human OATP1B1 came out at 1260 nM; at human KHK-C (ADP-Glo), 47.8 nM; at human KHK-A (ADP-Glo), 57.2 nM. In addition, a half-maximal response in test [1] (EC50) required 82.4 nM.

For `C[C@H]1CCN1c1nc(-c2ccc3c(=O)[nH]ccc3c2)c2c(n1)C(F)(F)CC2` [Example 317, (S)-6-(7,7-difluoro-2-(2-methylazetidin-1-yl)-6,7-dihydro-5H-cyclopenta[d]pyrimidin-4-yl)isoquinolin-1(2H)-one], the IC50 at human OATP1B1 was 284 nM; against human KHK-C (ADP-Glo), 1.7 nM; against human KHK-A (ADP-Glo), 4.9 nM. This molecule also returned an EC50 in test [1] of 3.5 nM.

`C[C@H]1[C@H](O)CN1c1nc(-c2cccc(S(N)(=O)=O)c2)c2c(n1)C(F)(F)CC2` [Example 322, 3-(7,7-difluoro-2-((2S,3R)-3-hydroxy-2-methylazetidin-1-yl)-6,7-dihydro-5H-cyclopenta[d]pyrimidin-4-yl)benzenesulfonamide]: the results for the IC50 at human OATP1B1, against human KHK-C (ADP-Glo) and on human KHK-A (ADP-Glo) were 13300 nM, 7.4 nM and 5.1 nM, respectively. Moreover, the EC50 in test [1] is 76.4 nM.

In the case of `C[C@H]1[C@H](O)CN1c1nc2c(c(-c3ccc4c(=O)[nH]ccc4c3)n1)CCC2` [Example 373, 6-[2-[(2S,3R)-3-hydroxy-2-methyl-azetidin-1-yl]-6,7-dihydro-5H-cyclopenta[d]pyrimidin-4-yl]-2H-isoquinolin-1-one], the IC50 on human OATP1B1 was determined as 379 nM; against human KHK-C (ADP-Glo), 20.4 nM; against human KHK-A (ADP-Glo), 54 nM. In test [1], this molecule yielded an EC50 of 53.8 nM.

On to `C[C@H]1CCN1c1nc2c(c(-c3cc(F)c4c(=O)[nH]ccc4c3)n1)CCC2` [Example 382, 8-fluoro-6-[2-[(2S)-2-methylazetidin-1-yl]-6,7-dihydro-5H-cyclopenta[d]pyrimidin-4-yl]-2H-isoquinolin-1-one], for which the IC50 came out at 149 nM on human OATP1B1, 6.3 nM against human KHK-C (ADP-Glo) and 16.1 nM against human KHK-A (ADP-Glo). The molecule also yielded an EC50 in test [1] of 13.8 nM.

As to `C[C@H]1CCN1c1nc2c(c(-c3ccc4c(=O)[nH]cnc4c3)n1)CCC2` [Example 383, 7-[2-[(2S)-2-methylazetidin-1-yl]-6,7-dihydro-5H-cyclopenta[d]pyrimidin-4-yl]-3H-quinazolin-4-one], the IC50 came out at 194 nM at human OATP1B1, 4.4 nM on human KHK-C (ADP-Glo) and 10.8 nM against human KHK-A (ADP-Glo). The same molecule registered an EC50 in test [1] of 7.3 nM.

On to `C[C@H]1CCN1c1nc2c(c(-c3ccc4c(=O)[nH]ncc4c3)n1)CCC2` [Example 427, 6-[2-[(2S)-2-methylazetidin-1-yl]-6,7-dihydro-5H-cyclopenta[d]pyrimidin-4-yl]-2H-phthalazin-1-one], for which the IC50 at human OATP1B1 turned out to be 210 nM; at human KHK-C, 30.2 nM; against human KHK-A, 17.8 nM. This molecule also displayed an EC50 in test [1] of 40.2 nM.

`C[C@H]1CCN1c1nc2c(c(-c3ccc4c(=O)[nH]cc(S(N)(=O)=O)c4c3)n1)CCC2` [Example 433, 6-[2-[(2S)-2-methylazetidin-1-yl]-6,7-dihydro-5H-cyclopenta[d]pyrimidin-4-yl]-1-oxo-2H-isoquinoline-4-sulfonamide]: the IC50 came out at 967 nM on human OATP1B1, 6.3 nM at human KHK-C and 27.2 nM against human KHK-A. Also, the response in test [1] was half-maximal at 484 nM (EC50).

Consider `C[C@H]1[C@H](O)CN1c1nc2c(c(-c3cc4cc[nH]c(=O)c4s3)n1)CCC2` [Example 450, 2-[2-[(2S,3R)-3-hydroxy-2-methyl-azetidin-1-yl]-6,7-dihydro-5H-cyclopenta[d]pyrimidin-4-yl]-6H-thieno[2,3-c]pyridin-7-one], for which the figures for the IC50 against human OATP1B1 and against human KHK-C were 992 nM and 9.3 nM, respectively. Besides, it took 298 nM to reach a half-maximal effect in test [1] (EC50).

In the case of `C[C@H]1[C@H](O)CN1c1nc(-c2ccc3c(c2)S(=O)(=O)NC3)c2c(n1)C(F)(F)CC2` [Example 598], the IC50 is 3140 nM against human OATP1B1 and 2.4 nM against human KHK-C. For the same molecule, the response in test [1] was half-maximal at 15.7 nM (EC50).

With `C[C@H]1[C@H](O)CN1c1nc(-c2cnc3c(c2)OCCNC3=O)c2c(n1)C(F)(F)CC2` [Example 599], the IC50 is 4380 nM at human OATP1B1 and 20.3 nM on human KHK-C. The molecule further returned an EC50 in test [1] of 4900 nM.

As to `C[C@H]1[C@H](O)CN1c1nc(-c2cc3cc[nH]c(=O)c3s2)c2c(n1)C(F)(F)CC2` [Example 643, 2-[7,7-difluoro-2-[(2S,3R)-3-hydroxy-2-methyl-azetidin-1-yl]-5,6-dihydrocyclopenta[d]pyrimidin-4-yl]-6H-thieno[2,3-c]pyridin-7-one], the IC50 was 798 nM on human OATP1B1 and 2.6 nM at human KHK-C. The EC50 in test [1] was 70.8 nM.

As for `C[C@H]1[C@H](O)CN1c1nc(-c2ccc(S(C)(=N)=O)cc2)c2c(n1)C(F)(F)CC2` (stereo partly drawn) [Example 715, (4-(7,7-difluoro-2-((2S,3R)-3-hydroxy-2-methylazetidin-1-yl)-6,7-dihydro-5H-cyclopenta[d]pyrimidin-4-yl)phenyl)(imino)(methyl)-λ^6-sulfanone], the IC50 against human OATP1B1 came to 30500 nM; at human KHK-C, 35.2 nM. The molecule further showed an EC50 in test [1] of 258 nM.

Consider `C[C@H]1[C@H](O)CN1c1nc(-c2ccc(C3(O)CS(=O)(=O)C3)cc2)c2c(n1)C(F)(F)CC2` [Example 735], for which the IC50 against human OATP1B1 turned out to be 2870 nM; on human KHK-C, 6.5 nM. In addition, the EC50 in test [1] turned out to be 52.1 nM.

As for `C[C@H]1[C@H](O)CN1c1nc(-c2cc3c(c(C(N)=O)c2)CCO3)c2c(n1)C(F)(F)CC2` [Example 756, 6-[7,7-difluoro-2-[(2S,3R)-3-hydroxy-2-methyl-azetidin-1-yl]-5,6-dihydrocyclopenta[d]pyrimidin-4-yl]-2,3-dihydrobenzofuran-4-carboxamide], the IC50 was found to be 1750 nM against human OATP1B1 and 7 nM at human KHK-C. In test [1], this molecule yielded an EC50 of 52.2 nM.
